Data from patent US10844013B2, “Phenyl amino piperidine mTORC inhibitors and uses thereof” (Navitor Pharmaceuticals, Inc., priority 2016, dated 2020).
Structures can show the parent of a compound that is named as a salt. Where two headings read alike, the source gives them in different places.

Key:
Assay type in all cases: cell-based
[1] = tested on: MCF-7 cells; assay: Radioactive glucose uptake in MCF-7 cells; details: Homo sapiens, MCF7, 3H-2DG uptake
Method: Example 157: Radioactive Glucose Uptake in MCF-7 Cells
Assay Protocol • 1. Seed approximately 12,000 MCF-7 cells cultured without insulin per well in 96-well plates (BIOCOAT, #356690) and let the cells sit in hood for 30 min. (Cell culture medium: DMEM+10% FBS). • 2. Put the cell culture plates in TC incubator (5% CO2, 37° C.) and incubate overnight. • 3. Take out the cell plates and wash with prewarmed KRH buffer (37° C.) three times using BioTek plate washer. (KRH buffer preparation: 136 mM NaCl, 4.7 mM KCl, 1.25 mM MgCl2, 1.2 mM CaCl2), 20 mM HEPES, 0.1 mg/ml sodium pyruvate, 0.1% BSA, pH 7.4). • 4. Compound preparation and treatment: • a) Add 12 ul compound stock in 100% DMSO to the first column of Echo LDV plate • b) Serially dilute the compound solution in 100% DMSO (4 uL+8 uL DMSO) using Bravo for 9 doses • c) Dispense 350 nL compounds using Echo to the working plate. • d) i) Without compound preincubation condition, dispense 116 uL KRH buffer containing tritiated 2-deoxy-D-glucose (3H-2DG) and 2-deoxy-D-glucose (2DG) to the working plate and mix. • ii. With compound preincubation condition, dispense 110 uL KRH buffer only to the working plates and mix • e) Keep the compound working plate at 37° C. incubator until use • 5. Discard the KRH buffer (cells were kept in KRH buffer for 10-15 min before 2-DG addition) and transfer 100 uL compound working solution out to the cell culture plate using Bravo. Incubate for 20 mins at 37° C. (2DG final at 0.2 mM, 3H-2DG at 10 uCi/mL). • 6. Add prewarmed 50 uL KRH buffer (37° C.) containing 60 mM cold 2DG to the wells to stop the 2DG uptake using Multidrop combi • 7. Wash the cells with prewarmed PBS three times using BioTek plate washer • 8. Add 50 uL lysis buffer (0.1 M NaOH) into the assay plate to lyse the cells using Bravo and shake at 800 rpm for 30 min. • 9. Mix and transfer 20 uL lysate to a new white plate (Corning, #3610) and add 200 uL MicroScint-20 using Bravo • 10. Shake the plate at 1000 rpm for 30 min and count in a MicroBeta plate reader.

[2] = tested on: pS6K1 (p-p70 S6 Kinase (Thr389)) in MCF-7 cells; assay: AlphaLISA Ultra pS6K1 assay; details: Homo sapiens, MCF7, 2 h, 2 hours compound incubation
How it was run: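 MCF-7 cells seeded 20–24 h, medium refreshed 2 h, then treated 2 h with compound (0.5% DMSO final). Lysates probed for Thr389-phosphorylated p70 S6K by AlphaLISA Ultra, 2 h acceptor then 2 h donor bead incubation, read on a multimode reader.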

[3] = tested on: pAKT (p-Akt 1/2/3 (Ser473)) in MCF-7 cells; assay: AlphaLISA Ultra pAKT assay
How it was run: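 AlphaLISA read-out (2 h acceptor-bead, then 2 h donor-bead incubation) on thawed lysates of MCF-7 cells exposed to compounds for 2 h in 0.5% DMSO. Cells had been plated 20-24 h and given fresh medium 2 h before dosing.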

[4] = Homo sapiens, MCF7, 2 hours compound incubation

Row | Compound | IC50 [1] | IC50 [2] | IC50 [3, 4] | IC50 ([3]; 2 hours compound incubation, read-out: pAKT in MCF7: IC50)
1 | Cc1cc(C)c(C(=O)N2CCN(c3ncccc3S(N)(=O)=O)CC2)nc1NC1CCN(c2ccccc2C#N)CC1 [I-25, 2-(4-(6-(1-(2-Cyanophenyl)piperidin-4-ylamino)-3,5-dimethylpicolinoyl)piperazin-1-yl)pyridine-3-sulfonamide] | 10 to 1000 nM | 10 to 1000 nM | > 10000 nM | 
2 | Cc1cc(C)c(C(=O)N2CCN(c3ncccc3S(N)(=O)=O)CC2)c(C)c1NC1CCN(c2ccccc2C#N)CC1 [I-15, 2-(4-(3-(1-(2-Cyanophenyl)piperidin-4-ylamino)-2,4,6-trimethylbenzoyl)piperazin-1-yl)pyridine-3-sulfonamide] | 10 to 1000 nM | 10 to 1000 nM | > 10000 nM | 
3 | Cc1cc(C)c(C(=O)N2CCN(c3ccccn3)[C@H](C)C2)cc1NC1CCN(c2ccccc2C#N)CC1 [I-45, (R)-2-(4-(2,4-Dimethyl-5-(3-methyl-4-(pyridin-2-yl)piperazine-1-carbonyl)phenylamino)piperidin-1-yl) benzonitrile] | 10 to 1000 nM | 10 to 1000 nM | > 10000 nM | 
4 | Cc1cc(C)c(C(=O)N2CCN(c3ccccc3)[C@H](CO)C2)c(C)c1NC1CCN(c2ccncn2)CC1 [I-166, [(3S)-3-(Hydroxymethyl)-4-phenyl-piperazin-1-yl]-[2,4,6-trimethyl-3-[(1-pyrimidin-4-yl-4-piperidyl)amino]phenyl]methanone] | > 10000 nM | 1000 to 3000 nM | > 10000 nM | 
5 | Cc1cc(C)c(C(=O)N2CCN(c3cccnn3)[C@H](CN)C2)c(C)c1NC1CCN(c2ccccc2C#N)CC1 [I-194, (R)-2-(4-(3-(3-(aminomethyl)-4-(pyridazin-3-yl)piperazine-1-carbonyl)-2,4,6-trimethylphenylamino)piperidin-1-yl)benzonitrile] | 10 to 1000 nM | 10 to 1000 nM | > 10000 nM | 
6 | Cc1cc(C)c(C(=O)N2CCN(c3nnnn3C)[C@H](CO)C2)cc1NC1CCN(c2ccccc2C#N)CC1 [I-91, (S)-2-(4-(5-(3-(Hydroxymethyl)-4-(1-methyl-1H-tetrazol-5-yl)piperazine-1-carbonyl)-2,4-dimethylphenylamino)piperidin-1-yl) benzonitrile] | 1000 to 3000 nM | 5000 to 10000 nM | > 10000 nM | 
7 | Cc1cc(C)c(C(=O)N2CCN(c3cccnc3[S@](C)(=N)=O)CC2)c(C)c1NC1CCN(c2ncccc2Cl)CC1 (stereo in doubt) [I-176, (3-(4-(3-((1-(3-chloropyridin-2-yl)piperidin-4-yl)amino)-2,4,6-trimethylbenzoyl)piperazin-1-yl)pyridin-2-yl)(imino)(methyl)-16-sulfanone Trifluoroacetate Salt] | 10 to 1000 nM |  |  | > 10000 nM
8 | Cc1cc(C)c(C(=O)N2CCN(c3cccnn3)[C@H](CO)C2)c(C)c1NC1CCN(c2ccc(F)cc2C#N)CC1 [I-141, 5-Fluoro-2-[4-[3-[(3S)-3-(hydroxymethyl)-4-pyridazin-3-yl-piperazine-1-carbonyl]-2,4,6-trimethyl-anilino]-1-piperidyl]benzonitrile] | 10 to 1000 nM | 10 to 1000 nM | > 10000 nM | 
9 | Cc1cc(C)c(C(=O)N2CCN(c3cccc4c3NC(=O)C4)CC2)cc1NC1CCN(c2ccccc2C#N)CC1 [I-61, 2-(4-(2,4-Dimethyl-5-(4-(2-oxoindolin-7-yl)piperazine-1-carbonyl)phenylamino)piperidin-1-yl)benzonitrile] | 10 to 1000 nM | 10 to 1000 nM | > 10000 nM | 
10 | Cc1ccc(NC2CCN(c3ccccc3C#N)CC2)cc1C(=O)N1CCN(c2ccccc2S(N)(=O)=O)CC1 [I-22, 2-(4-(5-(1-(2-Cyanophenyl)piperidin-4-ylamino)-2-methylbenzoyl)piperazin-1-yl)benzenesulfonamide] | 3000 to 5000 nM | 3000 to 5000 nM | > 10000 nM | 
11 | Cc1cc(C)c(C(=O)N2CCN(c3cncc4cn[nH]c34)CC2)cc1NC1CCN(c2ccccc2C#N)CC1 [I-44, 2-(4-(5-(4-(1H-Pyrazolo[4,3-c]pyridin-7-yl)piperazine-1-carbonyl)-2,4-dimethylphenylamino)piperidin-1-yl)benzonitrile] | 10 to 1000 nM | 10 to 1000 nM | > 10000 nM | 
12 | Cc1cc(C)c(C(=O)N2CCN(c3ccccn3)C(CO)C2)cc1NC1CCN(c2ccccc2C#N)CC1 (single isomer, unassigned) [I-48, 2-[4-({5-[(3R or 3S)-3-(hydroxymethyl)-4-(pyridin-2-yl)piperazine-1-carbonyl]-2,4-dimethylphenyl}amino)piperidin-1-yl]benzonitrile] | 10 to 1000 nM | 10 to 1000 nM | > 10000 nM | 
13 | COc1ccccc1N1CCC(Nc2cc(C(=O)N3CCN(c4ccccc4S(N)(=O)=O)CC3)c(C)cc2C)CC1 [I-128, 2-(4-(5-(1-(2-Methoxyphenyl)piperidin-4-ylamino)-2,4-dimethylbenzoyl)piperazin-1-yl)benzenesulfonamide] | 10 to 1000 nM | 10 to 1000 nM | > 10000 nM | 
14 | Cc1cc(C)c(C(=O)N2CCN(c3cccc(F)c3S(N)(=O)=O)C[C@@H]2C)c(C)c1NC1CCN(c2ccc(F)cc2C#N)CC1 [I-182, (S)-2-(4-(3-((1-(2-cyano-4-fluorophenyl)piperidin-4-yl)amino)-2,4,6-trimethylbenzoyl)-3-methylpiperazin-1-yl)-6-fluorobenzenesulfonamide] | 10 to 1000 nM | 10 to 1000 nM | > 10000 nM | 
15 | Cc1cc(C)c(C(=O)N2CCN(c3cccc(F)c3)C(CO)C2)cc1NC1CCN(c2ccccc2C#N)CC1 (stereo not drawn) [I-75, 2-[4-({5-[4-(3-Fluorophenyl)-3-(hydroxymethyl)piperazine-1-carbonyl]-2,4-dimethylphenyl}amino)piperidin-1-yl]benzonitrile] | 10 to 1000 nM | 10 to 1000 nM | > 10000 nM | 
16 | Cc1cc(C)c(C(=O)N2CCN(c3ccccc3S(N)(=O)=O)CC2)cc1NC1CN(c2ccccc2C#N)C1 [I-130, 2-(4-(5-(1-(2-Cyanophenyl)azetidin-3-ylamino)-2,4-dimethylbenzoyl)piperazin-1-yl)benzenesulfonamide] | 3000 to 5000 nM | 3000 to 5000 nM | > 10000 nM | 
17 | Cc1cc(C)c(C(=O)N2CCN(c3ccccn3)C(=O)C2)c(C)c1NC1CCN(c2ccccc2C#N)CC1 [I-138, 2-[4-({2,4,6-trimethyl-3-[3-oxo-4-(pyridin-2-yl)piperazine-1-carbonyl]phenyl}amino)piperidin-1-yl] benzonitrile] | 10 to 1000 nM | 10 to 1000 nM | > 10000 nM | 
18 | Cc1cc(C)c(C(=O)N2CCN(c3cccnc3S(N)(=O)=O)CC2)cc1NC1CCN(c2ccccc2C#N)CC1 [I-3, 3-(4-(5-(1-(2-Cyanophenyl)piperidin-4-ylamino)-2,4-dimethylbenzoyl)piperazin-1-yl)pyridine-2-sulfonamide] | 10 to 1000 nM | 10 to 1000 nM | > 10000 nM | 
19 | Cc1cc(C)c(C(=O)N2CCN(c3ccccn3)[C@H](CO)C2)c(C)c1NC1CCN(c2cccnn2)CC1 [I-159, [(2S)-1-(pyridin-2-yl)-4-(2,4,6-trimethyl-3-{[1-(pyridazin-3-yl)piperidin-4-yl]amino}benzoyl)piperazin-2-yl]MeOH] | 10 to 1000 nM | 10 to 1000 nM | > 10000 nM | 
20 | Cc1cc(C)c(N(CCO)C2CCN(c3ccccc3C#N)CC2)cc1C(=O)N1CCN(c2ccccc2S(N)(=O)=O)CC1 [I-1, 2-(4-(5-((1-(2-Cyanophenyl)piperidin-4-yl)(2-hydroxyethyl)amino)-2,4-dimethylbenzoyl)piperazin-1-yl)benzenesulfonamide] | 10 to 1000 nM | 10 to 1000 nM | > 10000 nM | 
21 | Cc1cc(C)c(C(=O)N2CCN(c3cccc(F)c3[S@](C)(=N)=O)C[C@@H]2C)c(C)c1NC1CCN(c2ccccc2C#N)CC1 [I-192, 2-(4-(3-((2S)-4-(3-fluoro-2-(S-methylsulfonimidoyl)phenyl)-2-methylpiperazine-1-carbonyl)-2,4,6-trimethylphenylamino)piperidin-1-yl)benzonitrile] | 10 to 1000 nM |  |  | 
